In the experiment the test system is MOLT-4 cells. Kind of experiment: MOLT-4 Cell Proliferation Assay (CellTiter-Glo). Conditions: Homo sapiens, 72 h, read-out: MOLT-4 CTG IC50. The class given is cell-based. How it is done:
Cell proliferation was measured using the CellTiter-Glo® Luminescent Cell Viability Assay. The assay involved the addition of a single reagent (CellTiter-Glo® Reagent) directly to cells cultured in serum-supplemented medium. MOLT-4 cells (ATCC, CRL-1582) were cultured according to ATCC recommendations and were seeded at 50,000 cells per well.
Each compound evaluated was prepared as a DMSO stock solution (10 mM). Compounds were tested in duplicate on each plate, with a 10-point serial dilution curve (1:3 dilution). The highest compound concentration was 10 μM (final), with a 0.1% final DMSO concentration. Plates were then incubated at 37° C., 5% CO2 for 72 h, cell plates were equilibrated at rt for approximately 30 mins. An equi-volume amount of CellTiter-Glo® Reagent (100 μL) was added to each well. Plates were mixed for 2 mins on an orbital shaker to induce cell lysis and then incubated at rt for 10 mins to stabilize the luminescent signal. Luminescence was recorded using a Envision plate reader according to CellTiter-Glo protocol. IC50 of each compound was calculated using GraphPad Prism by nonlinear regression analysis.
A general note: In ATP-based viability assays light output follows the ATP content of the culture.

As a reminder, the IC50 is the point on the concentration scale where inhibition reaches its midpoint. In the case of `CC1(C)CCC(CN2CCN(c3ccc(C(=O)NS(=O)(=O)c4ccc(N[C@H](CCN5CCN(CCCCCNc6cccc7c6CN(C6CCC(=O)NC6=O)C7=O)CC5)CSc5ccccc5)c(S(=O)(=O)C(F)(F)F)c4)cc3)CC2)=C(C23CC(C(F)F)(C2)C3)C1` (stereo partly drawn) [Example 15, 4-[4-[[2-[3-(difluoromethyl)-1-bicyclo[1.1.1]pentanyl]-4,4-dimethyl-cyclohexen-1-yl]methyl]piperazin-1-yl]-N-[4-[[(1R)-3-[4-[5-[[2-(2,6-dioxo-3-piperidyl)-1-oxo-isoindolin-4-yl]amino]pentyl]piperazin-1-yl]-1-(phenylsulfanylmethyl)propyl]amino]-3-(trifluoromethylsulfonyl)phenyl]sulfonyl-benzamide], the 50% inhibitory concentration (IC50) lay in the range of 0.05 to 0.15 µM. Next, `CC1(C)CCC(CN2CCN(c3ccc(C(=O)NS(=O)(=O)c4ccc(N[C@H](CCN5CCN(CCCCc6ccc7c(c6)CN(C6CCC(=O)NC6=O)C7=O)CC5)CSc5ccccc5)c(S(=O)(=O)C(F)(F)F)c4)cc3)CC2)=C(C23CC(C(F)F)(C2)C3)C1` (stereo partly drawn) [Example 18, 4-(4-((2-(3-(difluoromethyl)bicyclo [1.1.1]pentan-1-yl)-4,4-dimethylcyclohex-1-en-1-yl)methyl)piperazin-1-yl)-N-((4-(((2R)-4-(4-(4-(2-(2,6-dioxopiperidin-3-yl)-1-oxoisoindolin-5-yl)butyl)piperazin-1-yl)-1-(phenylthio)butan-2-yl)amino)-3-((trifluoromethyl)sulfonyl)phenyl)sulfonyl)benzamide]: no more than 0.05 µM; `Cc1ncsc1-c1ccc([C@H](CC(=O)NCCCCCC(=O)N2CCN(CC[C@H](CSc3ccccc3)Nc3ccc(S(=O)(=O)NC(=O)c4ccc(N5CCN(CC6=C(C78CC(C(F)F)(C7)C8)CC(C)(C)CC6)CC5)cc4)cc3S(=O)(=O)C(F)(F)F)CC2)NC(=O)[C@@H]2C[C@@H](O)CN2C(=O)[C@@H](NC(=O)C2(F)CC2)C(C)(C)C)cc1` [Example 47]: no less than 0.15 µM.

Turning to `Cc1cc([C@H](C(=O)N2C[C@H](O)C[C@H]2C(=O)N[C@@H](CC(=O)NCCCCCC(=O)N2CCN(CC[C@H](CSc3ccccc3)Nc3ccc(S(=O)(=O)NC(=O)c4ccc(N5CCN(CC6=C(C78CC(C(F)F)(C7)C8)CC(C)(C)CC6)CC5)cc4)cc3S(=O)(=O)C(F)(F)F)CC2)c2ccc(-c3scnc3C)cc2)C(C)C)on1` [Example 50, (2S,4R)—N—((S)-3-((6-(4-((R)-3-((4-(N-(4-(4-((2-(3-(difluoromethyl)bicyclo[1.1.1]pentan-1-yl)-4,4-dimethylcyclohex-1-en-1-yl)methyl)piperazin-1-yl)benzoyl)sulfamoyl)-2-((trifluoromethyl)sulfonyl)phenyl)amino)-4-(phenylthio)butyl)piperazin-1-yl)-6-oxohexyl)amino)-1-(4-(4-methylthiazol-5-yl)phenyl)-3-oxopropyl)-4-hydroxy-1-((R)-3-methyl-2-(3-methylisoxazol-5-yl)butanoyl)pyrrolidine-2-carboxamide], the IC50 was no less than 0.15 µM.

As to `CC1(C)CCC(c2ccc(Cl)cc2)=C(CN2CCN(c3ccc(C(=O)NS(=O)(=O)c4ccc(N[C@H](CCN5CCOCC5)CSc5ccccc5)c(S(=O)(=O)C(F)(F)F)c4)cc3)CC2)C1` [ABT-263, navitoclax, reference compound], the IC50 lay within 0.05 to 0.15 µM. In the case of `Cc1ncsc1-c1ccc([C@H](CC(=O)NCCCCCCN(C)CC[C@H](CSc2ccccc2)Nc2ccc(S(=O)(=O)NC(=O)c3ccc(N4CCN(CC5=C(C67CC(C(F)F)(C6)C7)CC(C)(C)CC5)CC4)cc3)cc2S(=O)(=O)C(F)(F)F)NC(=O)[C@@H]2C[C@@H](O)CN2C(=O)[C@@H](NC(=O)C2(F)CC2)C(C)(C)C)cc1` [Example 49, (2S,4R)—N-[(1S)-3-[6-[[(3R)-3-[4-[[4-[4-[[2-[3-(difluoromethyl)-1-bicyclo[1.1.1]pentanyl]-4,4-dimethyl-cyclohexen-1-yl]methyl]piperazin-1-yl]benzoyl]sulfamoyl]-2-(trifluoromethylsulfonyl)anilino]-4-phenylsulfanyl-butyl]-methyl-amino]hexylamino]-1-[4-(4-methylthiazol-5-yl)phenyl]-3-oxo-propyl]-1-[(2S)-2-[(1-fluorocyclopropanecarbonyl)amino]-3,3-dimethyl-butanoyl]-4-hydroxy-pyrrolidine-2-carboxamide], the half-maximal inhibitory concentration (IC50) was no less than 0.15 µM.

As for `Cc1ncsc1-c1ccc([C@H](C)NC(=O)[C@@H]2C[C@@H](O)CN2C(=O)[C@@H](NC(=O)CCCCCCC(=O)N2CCN(CC[C@H](CSc3ccccc3)Nc3ccc(S(=O)(=O)NC(=O)c4ccc(N5CCN(CC6=C(C78CC(C(F)F)(C7)C8)CC(C)(C)CC6)CC5)cc4)cc3S(=O)(=O)C(F)(F)F)CC2)C(C)(C)C)cc1` [Example 23, (2S,4R)-1-((S)-2-(8-(4-((R)-3-((4-(N-(4-(4-((2-(3-(difluoromethyl)bicyclo[1.1.1]pentan-1-yl)-4,4-dimethylcyclohex-1-en-1-yl)methyl)piperazin-1-yl)benzoyl)sulfamoyl) ((trifluoromethyl)sulfonyl)phenyl)amino)-4-(phenylthio)butyl)piperazin-1-yl)-8-oxooctanamido)-3,3-dimethylbutanoyl)-4-hydroxy-N—((S)-1-(4-(4-methylthiazol-5-yl)phenyl)ethyl)pyrrolidine-2-carboxamide], the concentration for half-maximal inhibition (IC50) fell in the range of 0.05 to 0.15 µM. Consider `Cc1ncsc1-c1ccc([C@H](C)NC(=O)[C@@H]2C[C@@H](O)CN2C(=O)[C@@H](NC(=O)CCCCCN2CCN(CC[C@H](CSc3ccccc3)Nc3ccc(S(=O)(=O)NC(=O)c4ccc(N5CCN(CC6=C(C78CC(C)(C7)C8)CC(C)(C)CC6)CC5)cc4)cc3S(=O)(=O)C(F)(F)F)CC2)C(C)(C)C)cc1` [Example 26, (2S,4R)-1-((S)-2-(6-(4-((R)-3-((4-(N-(4-(4-((4,4-dimethyl-2-(3-methylbicyclo[1.1.1]pentan-1-yl)cyclohex-1-en-1-yl)methyl)piperazin-1-yl)benzoyl)sulfamoyl)-2-((trifluoromethyl)sulfonyl)phenyl)amino)-4-(phenylthio)butyl)piperazin-1-yl)hexanamido)-3,3-dimethylbutanoyl)-4-hydroxy-N—((S)-1-(4-(4-methylthiazol-5-yl)phenyl)ethyl)pyrrolidine-2-carboxamide], for which the concentration for half-maximal inhibition (IC50) was no less than 0.15 µM. Turning to `CC1(C)CCC(CN2CCN(c3ccc(C(=O)NS(=O)(=O)c4ccc(N[C@H](CCN5CCN(CCCCCOc6cccc7c6C(=O)N(C6CCC(=O)NC6=O)C7=O)CC5)CSc5ccccc5)c(S(=O)(=O)C(F)(F)F)c4)cc3)CC2)=C(C23CC(C(F)F)(C2)C3)C1` (stereo partly drawn) [Example 3, 4-(4-((2-(3-(difluoromethyl)bicyclo [1.1.1]pentan-1-yl)-4,4-dimethylcyclohex-1-en-1-yl)methyl)piperazin-1-yl)-N-((4-(((2R)-4-(4-(5-((2-(2,6-dioxopiperidin-3-yl)-1,3-dioxoisoindolin-4-yl)oxy)pentyl)piperazin-1-yl)-1-(phenylthio)butan-2-yl)amino)-3-((trifluoromethyl)sulfonyl)phenyl)sulfonyl)benzamide], the IC50 was no more than 0.05 µM.

As for `Cc1ncsc1-c1ccc([C@H](C)NC(=O)[C@@H]2C[C@@H](O)CN2C(=O)[C@@H](NC(=O)CCCCC(=O)N2CCN(CC[C@H](CSc3ccccc3)Nc3ccc(S(=O)(=O)NC(=O)c4ccc(N5CCN(CC6=C(C78CC(C(F)F)(C7)C8)CC(C)(C)CC6)CC5)cc4)cc3S(=O)(=O)C(F)(F)F)CC2)C(C)(C)C)cc1` [Example 1, (2S,4R)-1-((S)-2-(6-(4-((R)-3-((4-(N-(4-(4-((2-(3-(difluoromethyl)bicyclo[1.1.1]pentan-1-yl)-4,4-dimethylcyclohex-1-en-1-yl)methyl)piperazin-1-yl)benzoyl)sulfamoyl)-2-((trifluoromethyl)sulfonyl)phenyl)amino)-4-(phenylthio)butyl)piperazin-1-yl)-6-oxohexanamido)-3,3-dimethylbutanoyl)-4-hydroxy-N—((S)-1-(4-(4-methylthiazol-5-yl)phenyl)ethyl)pyrrolidine-2-carboxamide], the IC50 was no less than 0.15 µM. For `CCC12CC(C3=C(CN4CCN(c5ccc(C(=O)NS(=O)(=O)c6ccc(N[C@H](CCN7CCN(C(=O)CCCCCC(=O)N[C@H](C(=O)N8C[C@H](O)C[C@H]8C(=O)N[C@@H](C)c8ccc(-c9scnc9C)cc8)C(C)(C)C)CC7)CSc7ccccc7)c(S(=O)(=O)C(F)(F)F)c6)cc5)CC4)CCC(C)(C)C3)(C1)C2` [Example 14, (2S,4R)-1-((S)-2-(7-(4-((R)-3-((4-(N-(4-(4-((2-(3-ethylbicyclo[1.1.1]pentan-1-yl)-4,4-dimethylcyclohex-1-en-1-yl)methyl)piperazin-1-yl)benzoyl)sulfamoyl)-2-((trifluoromethyl)sulfonyl)phenyl)amino)-4-(phenylthio)butyl)piperazin-1-yl)-7-oxoheptanamido)-3,3-dimethylbutanoyl)-4-hydroxy-N—((S)-1-(4-(4-methylthiazol-5-yl)phenyl)ethyl)pyrrolidine-2-carboxamide], the IC50 was in the range of 0.05 to 0.15 µM. With `Cc1ncsc1-c1ccc([C@H](CC(=O)NCCCCCCN2CCN(CC[C@H](CSc3ccccc3)Nc3ccc(S(=O)(=O)NC(=O)c4ccc(N5CCN(CC6=C(C78CC(C(F)F)(C7)C8)CC(C)(C)CC6)CC5)cc4)cc3S(=O)(=O)C(F)(F)F)CC2)NC(=O)[C@@H]2C[C@@H](O)CN2C(=O)[C@@H](NC(=O)C2(F)CC2)C(C)(C)C)cc1` [Example 48], the 50% inhibitory concentration (IC50) was no less than 0.15 µM.

The values are drawn from patent US20230167105A1, “BCL-2 PROTEIN INHIBITORS” (Recurium IP Holdings, LLC, priority 2020, published 2023).
